Converted amounts (≈) assume the structure as drawn. Like-named read-outs stand apart in the source and are kept apart here.
Tests used:
LoVo/dx = assay: Antiproliferative SRB assay, LoVo/dx; format: cell-based, human; details: for IC50: Homo sapiens, LoVo/DX, 72 h, read-out: IC50 LoVo/dx; for IR LoVo/DX: IR = IC50 LoVo/dx / IC50 LoVo; for SI LoVo/DX: SI = IC50 BALB/3T3 / IC50 LoVo/dx
MRSE 467/11 = assay: MIC microdilution, hospital MRSE; format: cell-based; details: Staphylococcus epidermidis
MRSA 456/11 = assay: MIC microdilution, hospital MRSA; format: cell-based; details: Staphylococcus aureus
S. aureus ATCC 4163 [1] = assay: MIC microdilution; format: cell-based; details: Staphylococcus aureus
MRSE 468/11 = assay: MIC microdilution, hospital MRSE; format: cell-based; details: Staphylococcus epidermidis
[2] = test system: S. epidermidis ATCC 12228; assay: Disc-diffusion (GIZ); format: cell-based; details: 18 h, 35 °C, un: unmeasurable
Source text: (§1) Microorganisms used in this study were as follows: Gram-positive cocci: S. aureus NCTC 4163, S. aureus ATCC 25923, S. aureus ATCC 6538, S. aureus ATCC 29213, S. epidermidis ATCC 12228, S. epidermidis ATCC 35984, Gram-negative rods: E. coli ATCC 10538, E. coli ATCC 25922, E. coli NCTC 8196, P. vulgaris NCTC 4635, P. aeruginosa ATCC 15442, P. aeruginosa NCTC 6749, P. aeruginosa ATCC 27863, B. bronchiseptica ATCC 4617 and yeasts: C. albicans ATCC 10231, C. albicans ATCC 90028, C. parapsilosis ATCC 22019. The other microorganisms used were obtained from the collection of the Department of Pharmaceutical Microbiology, Medical University of Warsaw, Poland.
(§2) Antibacterial activity was examined by the disc-diffusion method under standard conditions using Mueller-Hinton II agar medium (Becton Dickinson, Heidelberg, Germany) according to CLSI (previously NCCLS) guidelines. Antifungal activities were assessed using Muellere Hinton agar + 2% glucose and 0.5 mg/mL Methylene Blue Dye Medium.
(§3) Sterile filter paper discs (9 mm diameter, Whatman No. 3 chromatography paper) were dripped with tested compound solutions (in EtOH) to load […] of a given compound per disc. Dry discs were placed on the surface of appropriate agar medium. The results (diameter of the growth inhibition zone, GIZ) were read after 18 h of incubation at 35 °C.

S. aureus ATCC 6538 = assay: Disc-diffusion (GIZ); format: cell-based; details: 18 h, 35 °C, un: unmeasurable
Source text: as §1, §2, §3

[3] = test system: S. epidermidis ATCC 35984; assay: Disc-diffusion (GIZ); format: cell-based; details: 18 h, 35 °C, un: unmeasurable
Source text: as §1, §2, §3

S. aureus ATCC 29213 = assay: Disc-diffusion (GIZ); format: cell-based; details: 18 h, 35 °C, un: unmeasurable
Source text: as §1, §2, §3

S. aureus ATCC 4163 [4] = assay: Disc-diffusion (GIZ); format: cell-based; details: 18 h, 35 °C, un: unmeasurable
Source text: as §1, §2, §3

S. aureus ATCC 25923 = assay: Disc-diffusion (GIZ); format: cell-based; details: 18 h, 35 °C, un: unmeasurable
Source text: as §1, §2, §3

MRSE 466/11 = assay: MIC microdilution, hospital MRSE; format: cell-based; details: Staphylococcus epidermidis
MRSE 460/11 = assay: MIC microdilution, hospital MRSE; format: cell-based; details: Staphylococcus epidermidis
MRSA 585/12 = assay: MIC microdilution, hospital MRSA; format: cell-based; details: Staphylococcus aureus
MRSE 489/11 = assay: MIC microdilution, hospital MRSE; format: cell-based; details: Staphylococcus epidermidis
[5] = hospital MRSE strain 467/11, read-out: MIC
[6] = hospital MRSA strain 456/11, read-out: MIC
[7] = ATCC4163, S. aureus ATCC 4163, 18 h, 35 °C, read-out: MIC
[8] = hospital MRSE strain 468/11, read-out: MIC
[9] = hospital MRSE strain 466/11, read-out: MIC
[10] = hospital MRSE strain 460/11, read-out: MIC
[11] = hospital MRSA strain 585/12, read-out: MIC
[12] = hospital MRSE strain 489/11, read-out: MIC

Compound	IC50 (LoVo/dx)	IR LoVo/DX (LoVo/dx)	SI LoVo/DX (LoVo/dx)	MIC (MRSE 467/11; [5])	MIC (MRSA 456/11; [6])	MIC (S. aureus ATCC 4163 [1]; [7])	MIC (MRSE 468/11; [8])	GIZ [2]	GIZ (S. aureus ATCC 6538)	GIZ [3]	GIZ (S. aureus ATCC 29213)	GIZ (S. aureus ATCC 4163 [4])	GIZ (S. aureus ATCC 25923)	MIC (MRSE 466/11; [9])	MIC (MRSE 460/11; [10])	MIC (MRSA 585/12; [11])	MIC (MRSE 489/11; [12])	other results
CC[C@H](C(=O)NCc1ccc([N+](=O)[O-])cc1)C1CC[C@H](C)C([C@@H](C)[C@H](O)[C@H](C)C(=O)[C@H](CC)C2O[C@]3(C=C[C@@H](O)C4(CC[C@@](C)(C5CC[C@](O)(CC)[C@H](C)O5)O4)O3)[C@H](C)C[C@@H]2C)O1 (stereo partly drawn) [NO2-p]	20.4 ± 8.63 µM	1.53	0.34	128 µg/mL (≈ 145 µM)	128 µg/mL (≈ 145 µM)	128 µg/mL (≈ 145 µM)	128 µg/mL (≈ 145 µM)	un	un	un	un	un	un	256 µg/mL (≈ 289 µM)	128 µg/mL (≈ 145 µM)	256 µg/mL (≈ 289 µM)	256 µg/mL (≈ 289 µM)	
CC[C@@H](C(=O)[C@@H](C)[C@@H](O)[C@H](C)[C@@H]1O[C@@H]([C@@H](CC)C(=O)O)CC[C@@H]1C)[C@H]1O[C@]2(C=C[C@@H](O)[C@]3(CC[C@@](C)([C@H]4CC[C@](O)(CC)[C@H](C)O4)O3)O2)[C@H](C)C[C@@H]1C [SAL, Salinomycin]	0.81 ± 0.32 µM	1.72	16.07					34 mm	34 mm	33 mm	28 mm	30 mm	29 mm					MIC (MRSE 467/11; MRSE): 16 µg/mL (≈ 21.3 µM); MIC (MRSA 456/11; MRSA): 16 µg/mL (≈ 21.3 µM); MIC (S. aureus ATCC 4163 [1]; ATCC4163, 18 h): 2 µg/mL (≈ 2.66 µM); MIC (MRSE 468/11; MRSE): 16 µg/mL (≈ 21.3 µM); MIC (MRSE 466/11; MRSE): 8 µg/mL (≈ 10.7 µM); MIC (MRSE 460/11; MRSE): 16 µg/mL (≈ 21.3 µM); MIC (MRSA 585/12; MRSA): 16 µg/mL (≈ 21.3 µM); MIC (MRSE 489/11; MRSE): 16 µg/mL (≈ 21.3 µM)
CC[C@H](C(=O)NCc1ccc(F)cc1)C1CC[C@H](C)C([C@@H](C)[C@H](O)[C@H](C)C(=O)[C@H](CC)C2O[C@]3(C=C[C@@H](O)C4(CC[C@@](C)(C5CC[C@](O)(CC)[C@H](C)O5)O4)O3)[C@H](C)C[C@@H]2C)O1 (stereo partly drawn) [F-p]	3.29 ± 0.91 µM	0.53	2.62	64 µg/mL (≈ 74.6 µM)	16 µg/mL (≈ 18.6 µM)	32 µg/mL (≈ 37.3 µM)	64 µg/mL (≈ 74.6 µM)	20 mm	19 mm	18 mm	20 mm	18 mm	19 mm	16 µg/mL (≈ 18.6 µM)	32 µg/mL (≈ 37.3 µM)	32 µg/mL (≈ 37.3 µM)	32 µg/mL (≈ 37.3 µM)	
